Assay results taken from US20240016781A1, “TREATMENT OF KRAS MUTANT CANCERS” (MEI Pharma, Inc., priority 2020, published 2024).
Like-named read-outs stand apart in the source and are kept apart here.

Legend:
Test in all cases: 72-hour CellTiter-Glo 2.0 growth inhibition screen (single agent, 9x9 combination dose matrix)
Type in all cases: cell-based
AsPC-1 = conditions: for EC50: ASPC1, 72 h
Protocol: (§1) Growth inhibition was determined using a 72-hour CellTiter-Glo®2.0 proliferation assay. Combination format was a 9×9 dose matrix. Six of the 20 cell lines received the original two combinations whilst the remaining 14 cell lines received two additional combinations resulting in four combinations in total. Results have been supplied as both Chalice Analyzer files (.mcc) and raw luminescence data.
(§2) Cell lines that have been preserved in liquid nitrogen are thawed and expanded in growth media (see Appendix I). Once cells have reached expected doubling times, screening begins. Cells are seeded in 25 μl of growth media in black 384-well tissue culture treated plates at 500 cells per well (as noted in Analyzer). Cells are equilibrated in assay plates via centrifugation and placed at 37° C. 5% CO2 for twenty-four hours before treatment. […] Compounds are transferred to assay plates using and Echo acoustic liquid handling system. […] of each compound was added at the appropriate concentration for all combination dose points. Therefore, final assay volume would be 25.05 μl. Assay plates are incubated with compound for 3 days and are then analyzed using CellTiter-Glo 2.0. All data points are collected via automated processes and are subject to quality control and analyzed.
(§3) If T≥V_0:100*(1−(T−V_0)/(V−V_0)) • where T is the signal measure for a test article, V is the untreated/vehicle-treated control measure, and Vo is the untreated/vehicle control measure at time zero (also colloquially referred as TO plates). This formula is derived from the Growth Inhibition calculation used in the National Cancer Institute's NCI-60 high throughput screen. For the purposes of this disclosure, all data analysis was performed in Growth Inhibition (except where noted).
(§4) Inhibition is also provided as a measure of cell viability. […] Inhibition of 100% represents no doubling of cell numbers during the treatment window. Both cytostatic and cytotoxic treatments can yield an Inhibition percentage of 100%. Inhibition percentage is calculated as the following: […]
(§5) The fractional inhibition for each component agent and combination point in the matrix is calculated relative to the median of all untreated/vehicle-treated control wells. The Synergy Score equation integrates the experimentally-observed activity volume at each point in the matrix in excess of a model surface numerically derived from the activity of the component agents using the Loewe model for additivity. Additional terms in the Synergy Score equation (above) are used to normalize for various dilution factors used for individual agents and to allow for comparison of synergy scores across an entire experiment. The inclusion of positive inhibition gating or an Idata multiplier removes noise near the zero-effect level, and biases results for synergistic interactions at that occur at high activity levels. Combinations with higher maximum Growth Inhibition (GI) effects or those which are synergistic at low concentrations will have higher Synergy Scores.
(§6) The CI is a rough estimate of how much drug was needed in combination relative to the single agent doses required to achieve the chosen effect level. CI values in the range of 0.5-0.7 are typical for in vitro measurements of current clinical combinations. The CI error (σCI) is calculated using standard error propagation through the CI calculation based on the isobologram errors. In the Chalice Analyzer, the Best CI is reported from the many CI values calculated for each Icut crossing combination. Among all the measured CI values, the one with the largest single-to-noise level (1−CI)/σCI is reported as the Best CI. Best CI Level is the effect level from which the CI is calculated.

HCC1171 = test system: HCC1171
Protocol: as §1, §2, §3, §4, §5, §6

HCC44 = conditions: for EC50: HCC44, 72 h
Protocol: as §1, §2, §3, §4, §5, §6

SW48 KRAS (G12D/+) = conditions: for EC50: SW48, 72 h, read-out: EC50
Protocol: as §1, §2, §3, §4, §5, §6

SW48 = conditions: for EC50: SW48, 72 h
Protocol: as §1, §2, §3, §4, §5, §6

[1] = AsPC-1 (KRAS G12D), enhancer + MEI-522 (Voruciclib), 72 h
[2] = enhancer combined with MEI-522 (Voruciclib), AsPC-1 (Pancreas), 72 hours, inhibition data
[3] = HCC1171 (KRAS G12C), enhancer + MEI-522 (Voruciclib), 72 h
[4] = HCC1171, Lung, Additional Single Agent Responses (inhibition, % I), 72 h
[5] = enhancer combined with MEI-522 (Voruciclib), HCC1171 (Lung), 72 hours, inhibition data
[6] = HCC44 (KRAS G12C), enhancer + MEI-522 (Voruciclib), 72 h
[7] = Homo sapiens, HCC44, Lung, Additional Single Agent Responses (inhibition, % I), 72 h
[8] = Homo sapiens, HCC44, Lung, growth inhibition (GI) curve, single agent, 72 h
[9] = enhancer combined with MEI-522 (Voruciclib), HCC44 (Lung), 72 hours, inhibition data
[10] = Homo sapiens, SW48 KRAS (G12D/+), Colorectal, Additional Single Agent Responses (inhibition, % I), 72 h
[11] = Homo sapiens, SW48 KRAS (G12D/+), Colorectal, growth inhibition (GI) curve, single agent, 72 h
[12] = SW48 KRAS (G12D/+), enhancer + MEI-522 (Voruciclib), 72 h
[13] = enhancer combined with MEI-522 (Voruciclib), SW48 KRAS (G12D/+) (Colorectal), 72 hours, inhibition data
[14] = Homo sapiens, SW48, Colorectal, Additional Single Agent Responses (inhibition, % I), 72 h
[15] = Homo sapiens, SW48, Colorectal, growth inhibition (GI) curve, single agent, 72 h
[16] = SW48 (KRAS WT), enhancer + MEI-522 (Voruciclib), 72 h
[17] = enhancer combined with MEI-522 (Voruciclib), SW48 (Colorectal), 72 hours, inhibition data

## CC[C@@H]1C(=O)N(C)c2cnc(Nc3ccc(C(=O)N[C@H]4CC[C@H](N5CCN(CC6CC6)CC5)CC4)cc3OC)nc2N1C(C)C [Volasertib]
AsPC-1; [1]
  Best CI: 0.51
  Bliss Volume: −1.02
  HSA volume: 0.04
  Loewe Volume: −0.85
  Synergy Score: 1.87
AsPC-1; AsPC-1, Pancreas, Additional Single Agent Responses (inhibition, % I), 72 h
  Response Area: 3.11
AsPC-1; AsPC-1, Pancreas, growth inhibition (GI), AUC, single agent, 72 h
  Response Area: 4.36
AsPC-1; Homo sapiens, AsPC-1, Pancreas, Additional Single Agent Responses (inhibition, % I), 72 h
  EC50: 12.2 nM
AsPC-1; Homo sapiens, AsPC-1, Pancreas, growth inhibition (GI) curve, single agent, 72 h
  EC50: 12.2 nM
AsPC-1; Homo sapiens, ASPC1, AsPC-1, Pancreas, Additional Single Agent Responses (inhibition, % I), 72 h
  IC50: 23.1 nM
AsPC-1; Homo sapiens, ASPC1, AsPC-1, Pancreas, Additional Single Agent Responses, 72 h, read-out: Max Response (% I)
  Emax: 69%
AsPC-1; Homo sapiens, ASPC1, AsPC-1, Pancreas, growth inhibition (GI) curve, single agent, 72 h
  GI50: 13.7 nM
AsPC-1; Homo sapiens, ASPC1, AsPC-1, Pancreas, growth inhibition (GI), single agent, 72 h, read-out: Max Response (% GI)
  Emax: 96%
AsPC-1; [2]
  Best CI: 0.89
  Best CI Level: 20
  Bliss Volume: −2.24
  HSA volume: −0.18
  Loewe Volume: −0.80
  Synergy Score: 0.83
HCC1171; [3]
  Best CI: 0.95
  Bliss Volume: −2.15
  HSA volume: −1.49
  Loewe Volume: −1.27
  Synergy Score: 2.07
HCC1171; [4]
  EC50: 4.7 nM
  Response Area: 1.99
HCC1171; HCC1171, Lung, Additional Single Agent Responses, 72 h, read-out: Max Response (% I)
  Emax: 45%
HCC1171; HCC1171, Lung, growth inhibition (GI) curve, single agent, 72 h
  GI50: 5.3 nM
HCC1171; HCC1171, Lung, growth inhibition (GI), AUC, single agent, 72 h
  Response Area: 3.40
HCC1171; HCC1171, Lung, growth inhibition (GI), single agent, 72 h, read-out: Max Response (% GI)
  Emax: 79%
HCC1171; [5]
  Best CI: 0.79
  Bliss Volume: −3.18
  HSA volume: −0.81
  Loewe Volume: −0.71
  Synergy Score: 0.73
HCC1171; enhancer combined with MEI-522 (Voruciclib), HCC1171 (Lung), 72 hours, inhibition data, unit assumed
  Best CI Level: 50%
HCC44; [6]
  Best CI: 0.55
  Bliss Volume: 6.88
  HSA volume: 2.51
  Loewe Volume: 0.65
  Synergy Score: 6.97
HCC44; HCC44, Lung, Additional Single Agent Responses (inhibition, % I), 72 h
  Response Area: 4.07
HCC44; HCC44, Lung, growth inhibition (GI), AUC, single agent, 72 h
  Response Area: 5.39
HCC44; [7]
  EC50: 4.2 nM
  IC50: 6.3 nM
HCC44; [8]
  EC50: 4.5 nM
  GI50: 4.4 nM
HCC44; Homo sapiens, HCC44, Lung, Additional Single Agent Responses, 72 h, read-out: Max Response (% I)
  Emax: 81%
HCC44; Homo sapiens, HCC44, Lung, growth inhibition (GI), single agent, 72 h, read-out: Max Response (% GI)
  Emax: 113%
HCC44; [9]
  Best CI: 0.83
  Bliss Volume: −1.88
  HSA volume: 0.12
  Loewe Volume: −0.92
  Synergy Score: 1.13
HCC44; enhancer combined with MEI-522 (Voruciclib), HCC44 (Lung), 72 hours, inhibition data, unit assumed
  Best CI Level: 80%
SW48 KRAS (G12D/+); [10]
  EC50: 4.1 nM
  IC50: 4.8 nM
SW48 KRAS (G12D/+); [11]
  EC50: 4.2 nM
  GI50: 4.3 nM
SW48 KRAS (G12D/+); Homo sapiens, SW48 KRAS (G12D/+), Colorectal, Additional Single Agent Responses, 72 h, read-out: Max Response (% I)
  Emax: 86%
SW48 KRAS (G12D/+); Homo sapiens, SW48 KRAS (G12D/+), Colorectal, growth inhibition (GI), single agent, 72 h, read-out: Max Response (% GI)
  Emax: 148%
SW48 KRAS (G12D/+); SW48 KRAS (G12D/+), Colorectal, Additional Single Agent Responses (inhibition, % I), 72 h
  Response Area: 3.32
SW48 KRAS (G12D/+); SW48 KRAS (G12D/+), Colorectal, growth inhibition (GI), AUC, single agent, 72 h
  Response Area: 5.01
SW48 KRAS (G12D/+); [12]
  Best CI: 0.06
  Bliss Volume: 8.36
  HSA volume: 1.07
  Loewe Volume: 3.66
  Synergy Score: 13.34
SW48 KRAS (G12D/+); [13]
  Best CI: 0.08
  Bliss Volume: 0.41
  HSA volume: 0.61
  Loewe Volume: 2.08
  Synergy Score: 4.06
SW48 KRAS (G12D/+); enhancer combined with MEI-522 (Voruciclib), SW48 KRAS (G12D/+) (Colorectal), 72 hours, inhibition data, unit assumed
  Best CI Level: 80%
SW48; [14]
  EC50: 4.7 nM
  IC50: 4.9 nM
SW48; [15]
  EC50: 4.9 nM
  GI50: 4.6 nM
SW48; Homo sapiens, SW48, Colorectal, Additional Single Agent Responses, 72 h, read-out: Max Response (% I)
  Emax: 95%
SW48; Homo sapiens, SW48, Colorectal, growth inhibition (GI), single agent, 72 h, read-out: Max Response (% GI)
  Emax: 174%
SW48; [16]
  Best CI: 0.11
  Bliss Volume: 8.81
  HSA volume: −0.59
  Loewe Volume: 1.23
  Synergy Score: 11.75
SW48; SW48, Colorectal, Additional Single Agent Responses (inhibition, % I), 72 h
  Response Area: 4.47
SW48; SW48, Colorectal, growth inhibition (GI), AUC, single agent, 72 h
  Response Area: 6.76
SW48; [17]
  Best CI: 0.60
  Bliss Volume: 0.08
  HSA volume: 0.40
  Loewe Volume: 0.43
  Synergy Score: 1.83
SW48; enhancer combined with MEI-522 (Voruciclib), SW48 (Colorectal), 72 hours, inhibition data, unit assumed
  Best CI Level: 20%
